Experiments:
S. aureus DSM 20231 [1] = assay: fitness (endpoint OD595 vs no drug) (fraction); higher = more growth
Outline: (§1)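 Fitness was defined as the optical density at the transition into stationary phase relative to the robust mean of no-drug control wells. Values were capped at 1. Cultures were started at OD595 0.01 in 384-well plates (30 µl, or 55 µl for S. pneumoniae) in TSB, LB Lennox or CY at 37 °C. OD595 was recorded every 30 min over 14 h, with the first reading subtracted as background.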

B. subtilis 168 = assay: as above
Outline: as §1

S. aureus Newman = assay: as above
Outline: as §1

S. aureus DSM 20231 [2] = assay: Bliss interaction score (quartile over a dose matrix) (fitness difference); higher = more antagonism (negative = synergy)
Outline: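 Growth was read as OD595 when cultures entered stationary phase, and each value was divided by the plate's robust no-drug mean and capped at 1. This normalised ratio is the fitness value, and fitness for each single drug came from the combination data. The Bliss score subtracts the expected fitness, taken as the product, from the observed fitness and is given as quartiles across technical, biological and donor/recipient replicates.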

S. pneumoniae D39V = assay: fitness (endpoint OD595 vs no drug) (fraction); higher = more growth
Outline: as §1

[3] = first compound 0.5 µg/mL, partner 0.375 µg/mL
[4] = first compound 0.5 µg/mL, partner 0.75 µg/mL
[5] = first compound 0.5 µg/mL, partner 1.5 µg/mL
[6] = first compound 0.125 µg/mL, partner 0.125 µg/mL
[7] = first compound 0.125 µg/mL, partner 0.25 µg/mL
[8] = first compound 0.125 µg/mL, partner 0.5 µg/mL
[9] = first compound 0.25 µg/mL, partner 0.125 µg/mL
[10] = first compound 0.25 µg/mL, partner 0.25 µg/mL
[11] = first compound 0.25 µg/mL, partner 0.5 µg/mL
[12] = first compound 0.5 µg/mL, partner 0.125 µg/mL
[13] = first compound 0.5 µg/mL, partner 0.25 µg/mL
[14] = first compound 0.5 µg/mL, partner 0.5 µg/mL
[15] = first compound 1 µg/mL, partner 0.125 µg/mL, one replicate
[16] = first compound 1 µg/mL, partner 0.25 µg/mL, one replicate
[17] = first compound 1 µg/mL, partner 0.5 µg/mL, one replicate
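For Bliss interaction score (quartile over a dose matrix) in this document: first quartile when negative (synergy) and third quartile when positive (antagonism).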

CCCCCCCCCC(=O)N[C@@H](Cc1c[nH]c2ccccc12)C(=O)N[C@H](CC(N)=O)C(=O)N[C@@H](CC(=O)O)C(=O)N[C@@H]1C(=O)NCC(=O)N[C@@H](CCCN)C(=O)N[C@@H](CC(=O)O)C(=O)N[C@H](C)C(=O)N[C@@H](CC(=O)O)C(=O)NCC(=O)N[C@H](CO)C(=O)N[C@@H]([C@H](C)CC(=O)O)C(=O)N[C@@H](CC(=O)c2ccccc2N)C(=O)O[C@@H]1C [Daptomycin] + N[C@@H]1CONC1=O [Cycloserine D]
fitness (S. aureus DSM 20231 [1]; [3]): 0.964 | fitness (S. aureus DSM 20231 [1]; [4]): 0.996 | fitness (S. aureus DSM 20231 [1]; [5]): ≥ 1 | fitness (S. aureus DSM 20231 [1]; first compound 1 µg/mL, partner 0.375 µg/mL): ≥ 1 | fitness (S. aureus DSM 20231 [1]; first compound 1 µg/mL, partner 0.75 µg/mL): 0.983 | fitness (S. aureus DSM 20231 [1]; first compound 1 µg/mL, partner 1.5 µg/mL): ≥ 1 | fitness (S. aureus DSM 20231 [1]; first compound 2 µg/mL, partner 0.375 µg/mL): ≥ 1 | fitness (S. aureus DSM 20231 [1]; first compound 2 µg/mL, partner 0.75 µg/mL): 0.978 | fitness (S. aureus DSM 20231 [1]; first compound 2 µg/mL, partner 1.5 µg/mL): ≥ 1 | fitness (B. subtilis 168; [6]): 0.962 | fitness (B. subtilis 168; [7]): 0.903 | fitness (B. subtilis 168; [8]): 0.921 | fitness (B. subtilis 168; [9]): 0.978 | fitness (B. subtilis 168; [10]): 0.923 | fitness (B. subtilis 168; [11]): 0.989 | fitness (B. subtilis 168; [12]): 0.945 | fitness (B. subtilis 168; [13]): 0.886 | fitness (B. subtilis 168; [14]): 0.874 | fitness (B. subtilis 168; [15]): 0.784 | fitness (B. subtilis 168; [16]): 0.758 | fitness (B. subtilis 168; [17]): 0.737 | fitness (S. aureus Newman; first compound 0.125 µg/mL, partner 0.375 µg/mL): 0.979 | fitness (S. aureus Newman; first compound 0.125 µg/mL, partner 0.75 µg/mL): 0.996 | fitness (S. aureus Newman; first compound 0.125 µg/mL, partner 1.5 µg/mL): ≥ 1 | fitness (S. aureus Newman; first compound 0.25 µg/mL, partner 0.375 µg/mL): 0.983 | fitness (S. aureus Newman; first compound 0.25 µg/mL, partner 0.75 µg/mL): 0.999 | fitness (S. aureus Newman; first compound 0.25 µg/mL, partner 1.5 µg/mL): ≥ 1 | fitness (S. aureus Newman; [3]): 0.983 | fitness (S. aureus Newman; [4]): ≥ 1 | fitness (S. aureus Newman; [5]): 0.993

CN(C)C(=O)C(CCN1CCC(O)(c2ccc(Cl)cc2)CC1)(c1ccccc1)c1ccccc1 [Loperamide] + CC(C)(O)c1ccccc1CC[C@@H](SCC1(CC(=O)O)CC1)c1cccc(/C=C/c2ccc3ccc(Cl)cc3n2)c1 [Montelukast]
Bliss interaction score (S. aureus DSM 20231 [2]): -0.28

C[C@]12CC[C@@H]3c4ccc(O)cc4CC[C@H]3[C@@H]1CC[C@@H]2O [Estradiol] + CC[C@H]1OC(=O)[C@H](C)C(=O)[C@H](C)[C@@H](O[C@@H]2O[C@H](C)C[C@H](N(C)C)[C@H]2O)[C@](C)(OC)C[C@@H](C)C(=O)[C@H](C)[C@H]2N(CCCCn3cnc(-c4cccnc4)c3)C(=O)O[C@]12C [Telithromycin]
Bliss interaction score (S. aureus DSM 20231 [2]): 0.268

CC1(C)S[C@@H]2[C@H](NC(=O)[C@H](N)c3ccc(O)cc3)C(=O)N2[C@H]1C(=O)O [Amoxicillin] + CC/C(=C(\c1ccccc1)c1ccc(OCCN(C)C)cc1)c1ccccc1 [Tamoxifene]
Bliss interaction score (S. aureus DSM 20231 [2]): -0.148

CN(C)C(=O)C(CCN1CCC(O)(c2ccc(Cl)cc2)CC1)(c1ccccc1)c1ccccc1 [Loperamide] + CCCSc1nc(N[C@@H]2C[C@H]2c2ccc(F)c(F)c2)c2nnn([C@@H]3C[C@H](OCCO)[C@@H](O)[C@H]3O)c2n1 [Ticagrelor]
Bliss interaction score (S. aureus DSM 20231 [2]): -0.453

CN(C)C(=O)C(CCN1CCC(O)(c2ccc(Cl)cc2)CC1)(c1ccccc1)c1ccccc1 [Loperamide] + O=C(O)Cc1cc(I)c(Oc2ccc(O)c(I)c2)c(I)c1 [Tiratricol]
Bliss interaction score (S. aureus DSM 20231 [2]): 0.751

CC1(C)S[C@@H]2[C@H](NC(=O)[C@H](N)c3ccc(O)cc3)C(=O)N2[C@H]1C(=O)O [Amoxicillin] + O=C(O)c1cc(-c2ccc(F)cc2F)ccc1O [Diflunisal]
Bliss interaction score (S. aureus DSM 20231 [2]): 0.204

C[C@]12CC[C@@H]3c4ccc(O)cc4CC[C@H]3[C@@H]1CC[C@@H]2O [Estradiol] + COc1cc(Cc2cnc(N)nc2N)cc(OC)c1OC [Trimethoprim]
Bliss interaction score (S. aureus DSM 20231 [2]): 0.263

CN(C)C(=O)C(CCN1CCC(O)(c2ccc(Cl)cc2)CC1)(c1ccccc1)c1ccccc1 [Loperamide] + CN(Cc1cnc2nc(N)nc(N)c2n1)c1ccc(C(=O)N[C@@H](CCC(=O)O)C(=O)O)cc1 [Methotrexate]
Bliss interaction score (S. aureus DSM 20231 [2]): -0.309

Cc1ccc(-c2cc(C(F)(F)F)nn2-c2ccc(S(N)(=O)=O)cc2)cc1 [Celecoxib] + CC[C@H]1OC(=O)[C@H](C)C(=O)[C@H](C)[C@@H](O[C@@H]2O[C@H](C)C[C@H](N(C)C)[C@H]2O)[C@](C)(OC)C[C@@H](C)C(=O)[C@H](C)[C@H]2N(CCCCn3cnc(-c4cccnc4)c3)C(=O)O[C@]12C [Telithromycin]
Bliss interaction score (S. aureus DSM 20231 [2]): -0.162

C[C@]12CC[C@@H]3c4ccc(O)cc4CC[C@H]3[C@@H]1CC[C@@H]2O [Estradiol] + CC1(C)S[C@@H]2[C@H](NC(=O)Cc3ccccc3)C(=O)N2[C@H]1C(=O)O [PenicillinG]
Bliss interaction score (S. aureus DSM 20231 [2]): 0.255

CCCSc1nc(N[C@@H]2C[C@H]2c2ccc(F)c(F)c2)c2nnn([C@@H]3C[C@H](OCCO)[C@@H](O)[C@H]3O)c2n1 [Ticagrelor] + CC1=C\[C@@H](O)CC(=O)Cc2nc(co2)C(=O)N2CCC=C2C(=O)O[C@H](C(C)C)[C@H](C)/C=C/C(=O)NC\C=C\1 [Virginiamycin M1]
Bliss interaction score (S. aureus DSM 20231 [2]): 0.253

CCCCCCCCCC(=O)N[C@@H](Cc1c[nH]c2ccccc12)C(=O)N[C@H](CC(N)=O)C(=O)N[C@@H](CC(=O)O)C(=O)N[C@@H]1C(=O)NCC(=O)N[C@@H](CCCN)C(=O)N[C@@H](CC(=O)O)C(=O)N[C@H](C)C(=O)N[C@@H](CC(=O)O)C(=O)NCC(=O)N[C@H](CO)C(=O)N[C@@H]([C@H](C)CC(=O)O)C(=O)N[C@@H](CC(=O)c2ccccc2N)C(=O)O[C@@H]1C [Daptomycin] + CC1=C(C(=O)O)N2C(=O)[C@@H](NC(=O)[C@H](N)c3ccccc3)[C@H]2SC1 [Cephalexin]
fitness (B. subtilis 168; [6]): 0.897 | fitness (B. subtilis 168; [7]): 0.888 | fitness (B. subtilis 168; [8]): 0.879 | fitness (B. subtilis 168; [9]): 0.879 | fitness (B. subtilis 168; [10]): 0.892 | fitness (B. subtilis 168; [11]): 0.957 | fitness (B. subtilis 168; first compound 0.25 µg/mL, partner 1 µg/mL, one replicate): 0.956 | fitness (B. subtilis 168; [12]): 0.872 | fitness (B. subtilis 168; [13]): 0.879 | fitness (B. subtilis 168; [14]): 0.835 | fitness (B. subtilis 168; first compound 0.5 µg/mL, partner 1 µg/mL, one replicate): 0.92 | fitness (B. subtilis 168; [16]): 0.763 | fitness (B. subtilis 168; [17]): 0.741 | fitness (B. subtilis 168; first compound 1 µg/mL, partner 1 µg/mL, one replicate): 0.766 | fitness (S. pneumoniae D39V; [15]): 0.903 | fitness (S. pneumoniae D39V; [16]): 0.898 | fitness (S. pneumoniae D39V; [17]): 0.896 | fitness (S. pneumoniae D39V; first compound 1 µg/mL, partner 1 µg/mL): 0.452 | fitness (S. pneumoniae D39V; first compound 1 µg/mL, partner 2 µg/mL): 0.065 | fitness (S. pneumoniae D39V; first compound 1 µg/mL, partner 4 µg/mL): 0.0361 | fitness (S. pneumoniae D39V; first compound 2 µg/mL, partner 0.125 µg/mL, one replicate): 0.922 | fitness (S. pneumoniae D39V; first compound 2 µg/mL, partner 0.25 µg/mL, one replicate): 0.857 | fitness (S. pneumoniae D39V; first compound 2 µg/mL, partner 0.5 µg/mL, one replicate): 0.891 | fitness (S. pneumoniae D39V; first compound 2 µg/mL, partner 1 µg/mL): 0.479 | fitness (S. pneumoniae D39V; first compound 2 µg/mL, partner 2 µg/mL): 0.0675 | fitness (S. pneumoniae D39V; first compound 2 µg/mL, partner 4 µg/mL): 0.0644 | fitness (S. pneumoniae D39V; first compound 4 µg/mL, partner 0.125 µg/mL, one replicate): 0.977 | fitness (S. pneumoniae D39V; first compound 4 µg/mL, partner 0.25 µg/mL, one replicate): 0.878 | fitness (S. pneumoniae D39V; first compound 4 µg/mL, partner 0.5 µg/mL, one replicate): 0.887 | fitness (S. pneumoniae D39V; first compound 4 µg/mL, partner 1 µg/mL): 0.449 | fitness (S. pneumoniae D39V; first compound 4 µg/mL, partner 2 µg/mL): 0.0521 | fitness (S. pneumoniae D39V; first compound 4 µg/mL, partner 4 µg/mL): 0.0719 | fitness (S. aureus Newman; [7]): 0.956 | fitness (S. aureus Newman; [8]): 0.992 | fitness (S. aureus Newman; first compound 0.125 µg/mL, partner 1 µg/mL): 0.991 | fitness (S. aureus Newman; [10]): 0.962 | fitness (S. aureus Newman; [11]): ≥ 1 | fitness (S. aureus Newman; first compound 0.25 µg/mL, partner 1 µg/mL): ≥ 1 | fitness (S. aureus Newman; [13]): 0.984 | fitness (S. aureus Newman; [14]): 0.996 | fitness (S. aureus Newman; first compound 0.5 µg/mL, partner 1 µg/mL): ≥ 1

Source: the supplement of paper PMC10627819
